According to US10813920B2, “Drug for treating corneal endothelium by promoting cell proliferation or inhibiting cell damage” (THE DOSHISHA, priority 2013, dated 2020):

Experiments:
[1] = test system: cynomolgus monkey corneal endothelial cells; experiment: BrdU ELISA, concentration series, cynomolgus monkey corneal endothelial cells (Example 8); assay type: cell-based; conditions: concentration series per agent between 0.1 μM and 100 μM; 5000 cells/well; * p<0.01
Experimental: The medium was removed from a culture dish culturing cynomolgus monkey corneal endothelial cells ([…] phosphate buffer solution (Nacalai Tesque, 14249-95) heated to 37° C. in advance was added thereto and the cells were washed. This operation was repeated twice. After removing the phosphate buffer solution, 0.05% Trypsin-EDTA (Nacalai Tesque, 35554-64) was added and the cells were incubated for 10 minutes at 37° C. (5% CO2). The cells were then suspended in DMEM (Nacalai Tesque, 08456-94)+10% FBS (Biowest, S1820-500)+1% penicillin/streptomycin (P/S, Nacalai Tesque, 26252-94) and centrifuged for 3 minutes at 1200 rpm to collect the cells. A 96-well plate was treated with an FNC coating mix (50 ml ([…], catalog number: 0407). The monkey corneal endothelial cells (lot: 20120404-3L-P8) were seeded in the coated 96-well plate at a ratio of 5000 cells/well. The cells were cultured for 30 hours at 37° C. (5% CO2). After 30 hours, the medium was removed and changed to a serum free medium: DMEM+1% P/S to culture the cells for 18 hours. […] DMSO was added to the control. After 24 hours, a BrdU labeling reagent (Amersham Cell Proliferation Biotrak ELISA System, Version 2, GE Healthcare, catalog number: RPN250) was further added at a ratio of 1:1000 to the DMEM+10% FBS+1% P/S medium. […] DMSO was added to the control. After 24 hours, BrdU ELISA was carried out with Amersham Cell Proliferation Biotrak ELISA System, Version 2 (GE Healthcare, catalog number: RPN250). The absorbance at 450 nm was measured. *P<0.01, Dunnet's test, n=5. As in (1), the medium was removed from a culture dish culturing cynomolgus monkey corneal endothelial cells. A phosphate buffer solution heated to 37° C. in advance was added thereto and the cells were washed. This operation was repeated twice. After removing the phosphate buffer solution, 0.05% Trypsin-EDTA (Nacalai Tesque, 35554-64) was added and the cells were incubated for 10 minutes at 37° C. (5% CO2). The cells were then suspended in DMEM (Nacalai Tesque, 08456-94)+10% FBS (Biowest, S1820-500)+1% penicillin/streptomycin (Nacalai Tesque, catalog number: 26252-94) and centrifuged for 3 minutes at 1200 rpm to collect the cells. A 96-well plate was treated with an FNC coating mix (50 ml ([…], catalog number: 0407). Monkey corneal endothelial cells (lot: 20120404-3L-P8) were seeded in the coated 96-well plate at a ratio of 5000 cells/well. The cells were cultured for 30 hours at 37° C. (5% CO2). After 30 hours, the medium was removed and changed to a serum free medium: DMEM+1% P/S to culture the cells for 18 hours. After 18 hours, Semapimod HCl (MedKoo Biosciences, catalog number: 202590, lot number: SMC20120918) was added to the DMEM+10% FBS+1% P/S medium such that the final concentration dissolved with DMSO was 0.1, 0.3, 1, 3, or 10 μmol/l, and the cells were cultured for 24 hours. DMSO was added to the control. After 24 hours, a BrdU labeling reagent (Amersham Cell Proliferation Biotrak ELISA System, Version 2, GE Healthcare, catalog number: RPN250) was further added at a ratio of 1:1000 to the DMEM+10% FBS+1% P/S medium. Semapimod HCl was added such that the final concentration was 0.1, 0.3, 1, 3, or 10 μmol/l and the cells were cultured for 24 hours. DMSO was added to the control. After 24 hours, BrdU ELISA was carried out with Amersham Cell Proliferation Biotrak ELISA System, Version 2 (GE Healthcare, catalog number: RPN250). The absorbance at 450 nm was measured. […]

[2] = test system: human corneal endothelial cells; experiment: BrdU ELISA, one concentration per agent, human corneal endothelial cells (Example 9); assay type: cell-based; conditions: 10 μM SB203580, 1 μM Semapimod, 3 μM BIRB796, 1 μM PH-797804, 3 μM VX-702, 3 μM LY2228820, 3 μM TAK-715, * p<0.01
Experimental: The medium was removed from a culture dish culturing human corneal endothelial cells. PBS (-) heated to 37° C. in advance was added thereto and the cells were washed. This operation was repeated twice. After removing the PBS (-) TrypLE Select (×10) (GIBCO, A12177-01) was added and the cells were incubated for 10 minutes at 37° C. (5% CO2). The cells were then suspended in Opti-MEM (GIBCO, 31985-070) and centrifuged for 3 minutes at 1200 rpm to collect the cells. A 96-well plate was treated with an FNC coating mix (50 ml ([…], catalog number: 0407). The human corneal endothelial cells (lot: C1642-P8) were seeded in a Condition Medium for humans in the coated 96-well plate at a ratio of 3000 cells/well. The cells were cultured for 30 hours at 37° C. (5% CO2). After 30 hours, the medium was removed and changed to a serum free medium: Opti-MEM+1% P/S to culture the cells for 18 hours. […] SMC20120918), BIRB796 (Doramapimod) (Selleck Chemicals, catalog number: S1574, lot number: S157402), PH-797804 (Selleck Chemicals, catalog number: S2726, lot number: 01), VX-702 (Selleck Chemicals, catalog number: S6005, lot number: 02), LY2228820 (Selleck Chemicals, catalog number: S1494, lot number: 01), and TAK-715 (Selleck Chemical, catalog number: […] DMSO was added to the control. After 24 hours, a BrdU labeling reagent (Amersham Cell Proliferation Biotrak ELISA System, Version 2, GE Healthcare, catalog number: RPN250) was further added at a ratio of 1:1000 to the DMEM+10% FBS+1% P/S medium. […] DMSO was added to the control. After 24 hours, BrdU ELISA was carried out with Amersham Cell Proliferation Biotrak ELISA System, Version 2 (GE Healthcare, catalog number: RPN250). The absorbance at 450 nm was measured.

CCc1nc(-c2cccc(C)c2)c(-c2ccnc(NC(=O)c3ccccc3)c2)s1 [TAK-715, 2-benzamide-4-[2-ethyl-4-(3-methylphenyl)thiazole-5-yl]pyridine]
BrdU uptake as a percentage with respect to the control (proliferation) [1]: promotes proliferation | BrdU uptake as a percentage with respect to the control (proliferation) [2]: promotes proliferation

C[S+]([O-])c1ccc(-c2nc(-c3ccncc3)c(-c3ccc(F)cc3)[nH]2)cc1 (stereo not shown) [SB203580, 4-(4-fluorophenyl)-2-(4-methylsulfinylphenyl)-5-(4-pyridyl)-1H-imidazole]
BrdU uptake as a percentage with respect to the control (proliferation) [1]: promotes proliferation | BrdU uptake as a percentage with respect to the control (proliferation) [2]: promotes proliferation

CC(C)(C)Cn1c(N)nc2ccc(-c3nc(C(C)(C)C)[nH]c3-c3ccc(F)cc3)nc21 [LY2228820, 5-(2-(tert-butyl)-5-(4-fluorophenyl)-1H-imidazole-4-yl)-3-neopentyl-3H-imidazo[4,5-b]pyridine-2-amine]
BrdU uptake as a percentage with respect to the control (proliferation) [1]: promotes proliferation | BrdU uptake as a percentage with respect to the control (proliferation) [2]: promotes proliferation

CNC(=O)c1ccc(C)c(-n2c(C)cc(OCc3ccc(F)cc3F)c(Br)c2=O)c1 [PH-797804, 3-(3-bromo-4-((2,4-difluorobenzyl)oxy)-6-methyl-2-oxopyridine-1(2H)-yl)-N,4-dimethylbenzamide]
BrdU uptake as a percentage with respect to the control (proliferation) [1]: promotes proliferation | BrdU uptake as a percentage with respect to the control (proliferation) [2]: promotes proliferation

Cc1ccc(-n2nc(C(C)(C)C)cc2NC(=O)Nc2ccc(OCCN3CCOCC3)c3ccccc23)cc1 [BIRB796, N-[3-tert-butyl-1-(4-methylphenyl)pyrazole-5-yl]-N′-[4-(2-morpholinoethoxy)-1-naphthyl]urea]
BrdU uptake as a percentage with respect to the control (proliferation) [1]: promotes proliferation | BrdU uptake as a percentage with respect to the control (proliferation) [2]: promotes proliferation
